Our source for the IC50 values is US10092570B2 (Incyte Corporation, priority 2011, dated 2018).

Structures can show the parent of a compound that is named as a salt.

As usually defined, the IC50 is the concentration that gives 50% inhibition.

Sequence of PI3Kδ (p110δ/p85α) (O00329 whole entry): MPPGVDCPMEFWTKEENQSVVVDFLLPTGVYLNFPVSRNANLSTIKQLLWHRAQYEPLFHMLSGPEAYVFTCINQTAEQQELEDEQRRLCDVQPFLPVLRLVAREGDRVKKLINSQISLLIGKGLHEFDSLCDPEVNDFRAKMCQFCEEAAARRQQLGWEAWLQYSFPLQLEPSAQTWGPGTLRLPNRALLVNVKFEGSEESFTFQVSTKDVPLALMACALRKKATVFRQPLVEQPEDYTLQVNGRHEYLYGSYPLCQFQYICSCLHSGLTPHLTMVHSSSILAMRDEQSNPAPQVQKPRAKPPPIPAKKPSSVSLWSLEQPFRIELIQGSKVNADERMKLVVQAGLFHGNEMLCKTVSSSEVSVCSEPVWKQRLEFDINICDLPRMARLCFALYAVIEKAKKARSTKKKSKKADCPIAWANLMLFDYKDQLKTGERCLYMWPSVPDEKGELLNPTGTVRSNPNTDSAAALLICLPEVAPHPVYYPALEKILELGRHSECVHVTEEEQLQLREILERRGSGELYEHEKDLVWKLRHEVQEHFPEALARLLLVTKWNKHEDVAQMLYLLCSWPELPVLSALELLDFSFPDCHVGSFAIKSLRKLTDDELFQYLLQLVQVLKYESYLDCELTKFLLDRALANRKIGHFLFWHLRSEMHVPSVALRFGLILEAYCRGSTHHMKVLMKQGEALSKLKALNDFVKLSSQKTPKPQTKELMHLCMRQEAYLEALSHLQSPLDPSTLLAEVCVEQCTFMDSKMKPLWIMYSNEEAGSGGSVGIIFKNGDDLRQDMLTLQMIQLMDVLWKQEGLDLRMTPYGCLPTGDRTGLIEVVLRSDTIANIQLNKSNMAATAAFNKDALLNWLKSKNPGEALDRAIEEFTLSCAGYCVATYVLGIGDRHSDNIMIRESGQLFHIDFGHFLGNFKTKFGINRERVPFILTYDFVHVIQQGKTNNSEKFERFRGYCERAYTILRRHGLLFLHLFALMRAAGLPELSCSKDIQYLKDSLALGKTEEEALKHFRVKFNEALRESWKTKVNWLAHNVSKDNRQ
Sequence of PI3Kδ (p110δ/p85α) (P27986 whole entry partner): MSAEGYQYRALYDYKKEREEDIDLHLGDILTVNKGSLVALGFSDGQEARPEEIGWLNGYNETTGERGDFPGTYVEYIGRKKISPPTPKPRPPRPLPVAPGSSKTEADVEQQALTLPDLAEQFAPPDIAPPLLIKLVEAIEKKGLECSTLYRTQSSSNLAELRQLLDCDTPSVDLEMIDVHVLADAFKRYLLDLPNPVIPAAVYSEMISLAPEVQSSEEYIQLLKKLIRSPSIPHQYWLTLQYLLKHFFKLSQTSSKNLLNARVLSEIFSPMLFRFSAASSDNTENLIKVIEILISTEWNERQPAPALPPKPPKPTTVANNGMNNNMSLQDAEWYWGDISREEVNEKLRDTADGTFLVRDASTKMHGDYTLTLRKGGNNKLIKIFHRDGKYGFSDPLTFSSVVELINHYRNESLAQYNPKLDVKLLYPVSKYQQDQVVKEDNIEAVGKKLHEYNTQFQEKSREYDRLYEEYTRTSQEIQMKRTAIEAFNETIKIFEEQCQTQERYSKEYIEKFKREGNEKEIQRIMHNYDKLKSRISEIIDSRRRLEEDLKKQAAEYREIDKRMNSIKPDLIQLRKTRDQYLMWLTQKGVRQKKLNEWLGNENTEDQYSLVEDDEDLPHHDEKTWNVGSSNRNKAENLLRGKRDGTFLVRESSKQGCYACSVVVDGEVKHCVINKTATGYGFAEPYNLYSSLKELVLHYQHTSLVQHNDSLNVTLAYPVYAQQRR

The test system of the first assay is Pfeiffer cell line (diffuse large B cell lymphoma). The assay is described as follows: Example B2: Pfeiffer cell proliferation assay. It is filed as cell-based. The following applies: Homo sapiens, Pfeiffer, Pfeiffer cells, [3H]-thymidine incorporation. The procedure: Pfeiffer cell line (diffuse large B cell lymphoma) are purchased from ATCC (Manassas, Va.) and maintained in the culture medium recommended (RPMI and 10% FBS). To measure the anti-proliferation activity of the compounds, the Pfeiffer cells are plated with the culture medium (2×10^3 cells/well/per 200 μl) into 96-well ultra-low binding plates (Corning, Corning, N.Y.), in the presence or absence of a concentration range of test compounds. After 3-4 days, [^3H]-thymidine (1 μCi/well) (PerkinElmer, Boston, Mass.) in PBS is then added to the cell culture for an additional 12 hours before the incorporated radioactivity is separated by filtration with water through GF/B filters (Packard Bioscience, Meridenj, Conn.) and measured by liquid scintillation counting with a TopCount (Packard Bioscience).
`CCOc1c(C(C)n2nc(C)c3c(N)ncnc32)cc(Cl)c(C#N)c1C1CN(CCO)C1` (stereo not shown) [Example 219, 4-[1-(4-Amino-3-methyl-1H-pyrazolo[3,4-d]pyrimidin-1-yl)ethyl]-6-chloro-3-ethoxy-2-[1-(2-hydroxyethyl)azetidin-3-yl]benzonitrile] displayed a concentration for half-maximal inhibition (IC50) of under 10 nM.

`CCOc1c(C(C)n2nc(C)c3c(N)ncnc32)cc(Cl)c(C#N)c1C1CNC(=O)C1` (single isomer, unassigned) [Example 349, 4-[1-(4-amino-3-methyl-1H-pyrazolo[3,4-d]pyrimidin-1-yl)ethyl]-6-chloro-3-ethoxy-2-(5-oxopyrrolidin-3-yl)benzonitrile] registered an IC50 of under 10 nM.

As for `COc1c(C(C)n2nc(C)c3c(N)ncnc32)cc(Cl)c(C)c1-c1cncc(C(=O)N2CC(C#N)C2)c1` (single isomer, unassigned) [Example 177, 1-[(5-{3-[1-(4-amino-3-methyl-1H-pyrazolo[3,4-d]pyrimidin-1-yl)ethyl]-5-chloro-2-methoxy-6-methylphenyl}pyridin-3-yl)carbonyl]azetidine-3-carbonitrile], the 50% inhibitory concentration (IC50) is under 10 nM.

As to `CCOc1c(C(C)n2nc(C(F)F)c3c(N)ncnc32)cc(Cl)c(F)c1C1CN(CCO)C1` (racemic) [Example 152, 2-[3-(3-{1-[4-Amino-3-(difluoromethyl)-1H-pyrazolo[3,4-d]pyrimidin-1-yl]ethyl}-5-chloro-2-ethoxy-6-fluorophenyl)azetidin-1-yl]ethanol], the IC50 was under 10 nM.

For the compound `CCOc1c(C(C)n2nc(C)c3c(N)ncnc32)cc(Cl)c(C)c1-c1cncc(C(=O)N(C)C)c1` (single isomer, unassigned) [Example 196, 5-(3-(1-(4-amino-3-methyl-1H-pyrazolo[3,4-d]pyrimidin-1-yl)ethyl)-5-chloro-2-ethoxy-6-methylphenyl)-N,N-dimethylnicotinamide], the IC50 was under 10 nM.

With `CCOc1c(C(C)n2nc(C)c3c(N)ncnc32)cc(Cl)c(F)c1C1CN(C[C@H](C)O)C1` (stereo partly drawn) [Example 149, (2S)-1-(3-{3-[1-(4-Amino-3-methyl-1H-pyrazolo[3,4-d]pyrimidin-1-yl)ethyl]-5-chloro-2-ethoxy-6-fluorophenyl}azetidin-1-yl)propan-2-ol], the IC50 is under 10 nM.

For `CCOc1c(C(C)n2nc(C)c3c(N)ncnc32)cc(Cl)c(C#N)c1C1CN(CC)C1` (single isomer, unassigned) [Example 214, 4-[1-(4-Amino-3-methyl-1H-pyrazolo[3,4-d]pyrimidin-1-yl)ethyl]-6-chloro-3-ethoxy-2-(1-ethylazetidin-3-yl)benzonitrile], the IC50 is under 10 nM.

`COc1c(C(C)n2nc(C)c3c(N)ncnc32)cc(Cl)c(C)c1C1CN(C(=O)[C@@H](C)O)C1` (single isomer, unassigned) [Example 121, trifluoroacetate] gave an IC50 of 10 to 50 nM.

Regarding `COc1c(C(C)n2nc(C)c3c(N)ncnc32)cc(Cl)c(Cl)c1C1CN(CCO)C1` (single isomer, unassigned) [Example 300, 2-(3-{3-[1-(4-Amino-3-methyl-1H-pyrazolo[3,4-d]pyrimidin-1-yl)ethyl]-5,6-dichloro-2-methoxyphenyl}azetidin-1-yl)ethano], the IC50 is under 10 nM.

Compound `COc1c(C(C)n2nc(C)c3c(N)ncnc32)cc(Cl)c(C)c1-c1ccc(C(=O)N(C)C)nc1` (stereo not shown) [Example 167, 5-(3-(1-(4-Amino-3-methyl-1H-pyrazolo[3,4-d]pyrimidin-1-yl)ethyl)-5-chloro-2-methoxy-6-methylphenyl)-N,N-dimethylpicolinamide bis(2,2,2-trifluoroacetate)] had an IC50 of under 10 nM.

Take `COc1c(C(C)n2nc(C)c3c(N)ncnc32)cc(Cl)c(Cl)c1C1CN(CC(C)(C)O)C1` (single isomer, unassigned) [Example 303, 1-(3-{3-[1-(4-Amino-3-methyl-1H-pyrazolo[3,4-d]pyrimidin-1-yl)ethyl]-5,6-dichloro-2-methoxyphenyl}azetidin-1-yl)-2-methylpropan-2-ol]: the IC50 is under 10 nM.

With `COc1c(C(C)n2nc(C)c3c(N)ncnc32)cc(Cl)c(F)c1C1CN(C(C)C)C1` (stereo not drawn) [67 (1st peak), 1-{1-[5-Chloro-4-fluoro-3-(1-isopropylazetidin-3-yl)-2-methoxyphenyl]ethyl}-3-methyl-1H-pyrazolo[3,4-d]pyrimidin-4-amine], the IC50 is under 10 nM.

In the case of `CCOc1c(C(C)n2nc(C)c3c(N)ncnc32)cc(C)c(C#N)c1-c1ccc(C(=O)N(C)C)nc1` (stereo not shown) [Example 314, 5-{3-[1-(4-amino-3-methyl-1H-pyrazolo[3,4-d]pyrimidin-1-yl)ethyl]-6-cyano-2-ethoxy-5-methylphenyl}-N,N-dimethylpyridine-2-carboxamide], the IC50 is under 10 nM.

Compound `COc1c(C(C)n2nc(C)c3c(N)ncnc32)cc(Cl)c(C#N)c1C1CN(C(C)C)C1` (single isomer, unassigned) [Example 264, 4-[1-(4-Amino-3-methyl-1H-pyrazolo[3,4-d]pyrimidin-1-yl)ethyl]-6-chloro-2-(1-isopropylazetidin-3-yl)-3-methoxybenzonitrile] showed an IC50 of under 10 nM.

Another assay addresses PI3Kδ (p110δ/p85α) (Homo sapiens (Human), UniProt O00329). The assay is described as follows: Example A3: PI3Kδ scintillation proximity assay. It is filed as biochemical. The following applies: scintillation proximity assay, 20 μM ATP, 4 nM PI3Kδ; read-out: PI3Kδ SPA IC50. The method in brief: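 p110δ/p85α (4 nM) phosphorylated 20 μM PIP2 with 20 μM ATP plus [γ-33P]ATP in MOPS pH 6.7, MgCl2, DTT, CHAPS, 0.5% DMSO, at RT. Stopped with EDTA/excess ATP, product captured on WGA SPA beads overnight and counted; IC50 from percent control activity versus log inhibitor.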
On the technique in general: Scintillation proximity formats need no separation of bound from free tracer.
On to `CCOc1c(C(C)n2nc(C)c3c(N)ncnc32)cc(Cl)c(C#N)c1C1CN(C(C)(C)C(=O)OC(C)(C)C)C1` (stereo not shown) [Example 236, tert-Butyl 2-(3-{3-[1-(4-amino-3-methyl-1H-pyrazolo[3,4-d]pyrimidin-1-yl)ethyl]-5-chloro-6-cyano-2-ethoxyphenyl}azetidin-1-yl)-2-methylpropanoate], for which the IC50 is under 10 nM.

With `CCOc1c(C(C)n2nc(C)c3c(N)ncnc32)cc(Cl)c(C#N)c1C1CN(CC2CCOC2)C1` (single isomer, unassigned) [Example 231, 4-[1-(4-Amino-3-methyl-1H-pyrazolo[3,4-d]pyrimidin-1-yl)ethyl]-6-chloro-3-ethoxy-2-[1-(tetrahydrofuran-3-ylmethyl)azetidin-3-yl]benzonitrile], the IC50 is under 10 nM.

For the compound `CCOc1c(C(C)n2nc(C)c3c(N)ncnc32)cc(Cl)c(C)c1C1CN(CC(C)(C)O)C1` (single isomer, unassigned) [Example 98, 1-(3-{3-[1-(4-Amino-3-methyl-1H-pyrazolo[3,4-d]pyrimidin-1-yl)ethyl]-5-chloro-2-ethoxy-6-methylphenyl}azetidin-1-yl)-2-methylpropan-2-ol], the IC50 was under 10 nM.

As for `COc1c(C(C)n2nc(C)c3c(N)ncnc32)cc(Cl)c(C)c1-c1cnn(C2CCN(C)CC2)c1` (single isomer, unassigned) [Example 181, 1-(1-(5-Chloro-2-methoxy-4-methyl-3-(1-(1-methylpiperidin-4-yl)-1H-pyrazol-4-yl)phenyl)ethyl)-3-methyl-1H-pyrazolo[3,4-d]pyrimidin-4-amine], the half-maximal inhibitory concentration (IC50) was under 10 nM.

Take `CCOc1c(C(C)n2nc(C)c3c(N)ncnc32)cc(C)c(C#N)c1-c1cnn(C)c1` (racemic) [Example 343, 4-[1-(4-amino-3-methyl-1H-pyrazolo[3,4-d]pyrimidin-1-yl)ethyl]-3-ethoxy-6-methyl-2-(1-methyl-1H-pyrazol-4-yl)benzonitrile]: the IC50 is under 10 nM.

On to `COc1c(C(C)n2nc(C)c3c(N)ncnc32)cc(Cl)c(C)c1-c1cnn(CCN(C)C)c1` (single isomer, unassigned) [Example 183, 1-[1-(5-Chloro-3-{1-[2-(dimethylamino)ethyl]-1H-pyrazol-4-yl}-2-methoxy-4-methylphenyl)ethyl]-3-methyl-1H-pyrazolo[3,4-d]pyrimidin-4-amine], for which the IC50 is under 10 nM.

Regarding `CCOc1c(C(C)n2nc(C(F)F)c3c(N)ncnc32)cc(Cl)c(C)c1-c1ccc(C(=O)N(C)C)nc1` (racemic) [Example 82, 5-(3-{1-[4-Amino-3-(difluoromethyl)-1H-pyrazolo[3,4-d]pyrimidin-1-yl]ethyl}-5-chloro-2-ethoxy-6-methylphenyl)-N,N-dimethylpyridine-2-carboxamide bis(trifluoroacetate)], the IC50 was under 10 nM.

For the compound `COc1c(C(C)n2nc(C)c3c(N)ncnc32)cc(Cl)c(C)c1C1CN(C(C)=O)C1` (stereo not shown) [Example 2, 1-{1-[3-(1-Acetylazetidin-3-yl)-5-chloro-2-methoxy-4-methylphenyl]ethyl}-3-methyl-1H-pyrazolo[3,4-d]pyrimidin-4-amine trifluoroacetate], the IC50 is under 10 nM.

As for `CCC(=O)N1CC(c2c(C)c(Cl)cc(C(C)n3nc(C)c4c(N)ncnc43)c2OC)C1` (stereo not shown) [Example 3, 1-{1-[5-Chloro-2-methoxy-4-methyl-3-(1-propionylazetidin-3-yl)phenyl]ethyl}-3-methyl-1H-pyrazolo[3,4-d]pyrimidin-4-amine trifluoroacetate], the IC50 is under 10 nM.

For the compound `COc1c(C(C)n2nc(C)c3c(N)ncnc32)cc(Cl)c(C)c1-c1ccnc(C(=O)N(C)C)c1` (stereo not shown) [Example 16, 4-{3-[1-(4-Amino-3-methyl-1H-pyrazolo[3,4-d]pyrimidin-1-yl)ethyl]-5-chloro-2-methoxy-6-methylphenyl}-N,N-dimethylpyridine-2-carboxamide], the IC50 is under 10 nM.

Turning to `CCOc1c(C(C)n2nc(C)c3c(N)ncnc32)cc(Cl)c(C)c1C1CN(C(=O)[C@H](C)O)C1` (stereo partly drawn) [Example 99, (2S)-1-(3-{3-[1-(4-Amino-3-methyl-1H-pyrazolo[3,4-d]pyrimidin-1-yl)ethyl]-5-chloro-2-ethoxy-6-methylphenyl}azetidin-1-yl)-1-oxopropan-2-ol trifluoroacetate], the IC50 was under 10 nM.
